In the supplement of paper PMC10307832:

How the values were obtained:
Assay in all cases: relative viability (nuclei count vs DMSO), 5 days (fraction); higher = more cells survive
[1] = compound: C1=CC=C(C(=C1)C2=CC=C(C=C2)C3=CSC4=C3C(=C(C(=O)N4)C#N)O)O + CC(C)C[C@H](NC(=O)[C@H](Cc1ccccc1)NC(=O)c1cnccn1)B(O)O [Bortezomib] (partner 0.002 µM)
In short: (§1)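 Five library-drug doses in √10 steps were combined with a fixed anchor-drug dose, or a single drug was given alone, by pin tool to lung cancer cell lines in 1536-well plates the day after seeding. Nuclei were stained and counted after 5 days. Relative viability is the nuclei count in treated wells over that in vehicle wells, taken as the median of duplicate plates.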

[2] = compound: CC1=CN2C(=O)C=C(N=C2C(=C1)C(C)NC3=CC=CC=C3)N4CCOCC4 [TGX 221] + CC(C)C[C@H](NC(=O)[C@H](Cc1ccccc1)NC(=O)c1cnccn1)B(O)O [Bortezomib] (partner 0.002 µM)
In short: as §1

[3] = compound: CC1=CN2C(=O)C=C(N=C2C(=C1)C(C)NC3=CC=CC=C3)N4CCOCC4 [TGX 221] + C[C@@H](Oc1cc(-c2cnn(C3CCNCC3)c2)cnc1N)c1c(Cl)ccc(F)c1Cl [Crizotinib] (partner 1 µM)
In short: as §1

[4] = compound: CC1=CN2C(=O)C=C(N=C2C(=C1)C(C)NC3=CC=CC=C3)N4CCOCC4 [TGX 221] + Cc1nc(Nc2ncc(C(=O)Nc3c(C)cccc3Cl)s2)cc(N2CCN(CCO)CC2)n1 [Dasatinib] (partner 0.075 µM)
In short: as §1

Cell Line	relative viability ([1]; first compound 0.253 µM)	relative viability ([1]; first compound 0.8 µM)	relative viability ([1]; first compound 2.53 µM)	relative viability ([1]; first compound 8 µM)	relative viability ([2]; first compound 0.08 µM)	relative viability ([2]; first compound 0.253 µM)	relative viability ([2]; first compound 0.8 µM)	relative viability ([2]; first compound 2.53 µM)	relative viability ([2]; first compound 8 µM)	relative viability ([3]; first compound 0.08 µM)	relative viability ([3]; first compound 0.253 µM)	relative viability ([3]; first compound 0.8 µM)	relative viability ([3]; first compound 2.53 µM)	relative viability ([3]; first compound 8 µM)	relative viability ([4]; first compound 0.08 µM)	relative viability ([4]; first compound 0.253 µM)	relative viability ([4]; first compound 0.8 µM)	relative viability ([4]; first compound 2.53 µM)	relative viability ([4]; first compound 8 µM)	relative viability ([1]; first compound 0.08 µM)
NCI-H1650	0.241	0.228	0.207	0.207	0.2	0.22	0.213	0.198	0.201	0.828	0.857	0.875	0.956	0.545	0.236	0.29	0.28	0.323	0.242	
NCI-H1651	0.914	1.01	1.02	0.834		0.96	0.919	0.868	0.858		0.834	0.865	0.839	0.753	0.505	0.371	0.464	0.345	0.362	0.866
NCI-H1666	0.838	0.693	0.904	0.782	0.771	0.723	0.872	0.648	0.764	1	0.933	0.988	0.935	0.957	0.81	0.756	0.778	0.739	0.753	0.849
NCI-H1734	0.787	1.04	0.924	0.545	0.876	0.893	0.853	0.779	0.823	0.652	0.643	0.643	0.588	0.537	0.472	0.393	0.433	0.444	0.391	0.852
NCI-H1755	1.04	0.872	0.978	0.814	1.03	0.855	0.97	0.887	0.886	0.873	0.863	0.827	0.752	0.607	0.406	0.371	0.366	0.317	0.317	0.954
NCI-H1915	0.993	1.06	1.11	0.831	0.897	0.963	1.04	0.914	1.02	0.864	0.83	0.942	0.9	0.813	0.257	0.303	0.304	0.302	0.314	0.768
NCI-H1975	0.348	0.436	0.41	0.343	0.459	0.351	0.384	0.39	0.305	0.985	0.878	0.996	0.935	0.803	0.347	0.335	0.318	0.345	0.343	0.357
NCI-H1993	1.08	1.08	1.14	0.979	0.932	0.838	0.963	0.785	0.892	0.778	0.815	0.951	0.807	0.774	0.504	0.634	0.557	0.541	0.572	1.03
NCI-H2009	1.05	0.827	0.967	0.832	0.995	1.02	1.02	0.948	0.769	0.964	0.978	1	1.03	0.773	0.254	0.199	0.228	0.213	0.177	1.07
NCI-H2023	1.03	0.637	0.887	0.908	0.947	0.864	1.06	0.861	0.857	0.594	0.532	0.689	0.591	0.463	0.481	0.481	0.592	0.537	0.407	1.16
NCI-H2085	1.26	1.01	0.952	0.992	1.05	0.856	0.889	0.809	0.724	0.804	0.878	0.915	0.806	0.505	0.228	0.195	0.208	0.191	0.187	0.919
NCI-H2087	1	0.796	0.833	0.899	0.832	0.759	0.916	0.956	1.06	1.02	1.01	0.802	0.979	1.19	1.02	0.75	0.646	0.9	0.993	0.609
NCI-H2126	1.13	1.18	1.21	1.22	1.09	1.08	1.06	1.06	1.08	0.992	1.04	0.963	0.975	0.966	0.512	0.61	0.615	0.578	0.585	1.06
